Assay results published in EP0172632B1, “Benzopyrano[4,3,2-cd]indazole compounds, processes for their production and pharmaceutical compositions comprising the compounds” (WARNER-LAMBERT COMPANY, priority 1984, dated 1986).
Structures can show the parent of a compound that is named as a salt.

How the values were obtained:
[1] = system: L1210 cells; assay: L1210 in vitro cell growth inhibition; format: cell-based; conditions: Mus musculus, 72 h; L1210 murine leukemia cells, three days incubation, 50% inhibition of growth; read-out: L1210 in vitro ID50
Method: Another test protocol uses L1210 cells, a murine leukemia cell line, grown in RPMI 1640 supplemented with 5% fetal bovine serum and gentamicin ([…]). Drug dilutions are prepared in the appropriate solvent and 20 µl of each dilution are added to 24-well Linbro tissue culture plates, followed by the addition of 2.0 ml of cell suspension containing 3 x 10^4 cells per ml. Solvent and medium controls are included in each test. After incubation at 37°C for three days in 5% CO2, the contents of each well are removed and the cells counted in a ZBI Counter counter. Percent growth are calculated relative to the controls and the levels of drug activity are expressed as ID50 in moles per liter.

[2] = system: lymphocytic leukemia P388; assay: in vivo lymphocytic leukemia P388 test; conditions: Mus musculus, P388, ip, 120 h, mice, survival time treated/control, read-out: P388 in vivo T/C×100; for response vs control in vivo at 12.5 mg/kg: Dose 12.5 mg/kg intraperitoneally once daily for five days; for response vs control in vivo at 25 mg/kg: Dose 25 mg/kg intraperitoneally once daily for five days
Method: Another test protocol is the in vivo lymphocytic leukemia P388 test. The animals used are either male or female CD2F, mice. There are six or seven animals per test group. The tumor transplant is by intraperitoneal injection of dilute ascitic fluid containing cells of lymphocytic leukemia P388. The test compounds are administered intraperitoneally once daily for five consecutive days at various doses following tumor inoculation. The animals are weighed and survivors are recorded on a regular basis for 30 days. A compound is designated "toxic" if, at a given dose, all animals died prior to four days after the first injection of drug. A ratio of survival time for treated (T)/control (C) animals is calculated. A criterion for efficacy is a ratio T/C times 100 greater than or equal to 125. See Cancer Chemotherapy Reports, Part 3, 3, 1 (1972) for a comprehensive discussion of the protocol.

[3] = system: Streptococcus faecalis 05045; assay: in vitro antibacterial/antifungal (ABF) agar-disk diffusion assay; format: cell-based; conditions: Enterococcus faecalis, AM-09 medium, read-out: ABF Zone Diameter (Conc. in mg/ml) S. Fae-calis; for zone of inhibition at 500 µg/mL: Conc. .5 mg/ml
Method: (§1) Still another test protocol is the in vitro antibacterial/antifungal (ABF) test. Compounds are tested for antimicrobial activity in an agar-disk diffusion assay, a standard microbiological technique for testing antibiotics. After incubation of each culture with a test compound, a zone of inhibition is determined. The zone diameter (mm) of active compounds ranges from a minimum of 13.5 mm to as high as 60 mm, with a greater diameter reflecting higher activity. For convenience, values are reported for two gram-negative bacteria (Aerobacter aerogenes 0126 and Escherichia coli 04863), two gram-positive bacteria (Bacillus subtilis 04555 and Streptococcus faecalis 05045 utilizing AM-09 medium), and one mycelial fungus (Penicillium avellaneum M2988).

[4] = system: Bacillus subtilis 04555; assay: as above; format: cell-based; conditions: read-out: ABF Zone Diameter (Conc. in mg/ml) B. Sub-tilis; for zone of inhibition at 500 µg/mL: Conc. .5 mg/ml
Method: as §1

[5] = system: Penicillium avellaneum M2988; assay: as above; format: cell-based; conditions: Hamigera avellanea, read-out: ABF Zone Diameter (Conc. in mg/ml) P. Avell-aneum; for zone of inhibition at 3000 µg/mL: Conc. 3 mg/ml
Method: as §1

[6] = system: HCT-8 cells; assay: in vitro proliferating human colon adenocarcinoma (HCA) cell screen; format: cell-based; conditions: 60 to 65 hours with compound, 50% inhibition of growth, read-out: HCA-4 in vitro ID50
Method: One test protocol is the in vitro proliferating human colon adenocarcinoma (HCA) cell screen. In this test, HCT-8 cells (HCA cell line received from Yale University) are trypsinized using trypsin-EDTA. A single cell suspension is achieved by passing the cells through a 26 gauge needle with a 20 cc syringe. A cell suspension is prepared using RPMI 1640 + 10% FCS + 50 µg/ml gentamicin sulfate with a cell concentration of approximately 30,000 cells/ml. The cell suspension is dispensed in Linbro 24-well plates; 1 ml/well. The plates are incubated for approximately 48 hours at 37°C in a 5% CO2 atmosphere. At this time test compounds are added in the appropriate concentration. Five µl of the 200 µg/ml stock solution is added to each well in a primary test. Ten ul of the appropriate dilution is added to each well for the titration test. The plates are reincubated an additional 60 to 65 hours at 37°C in a 5% C02 atmosphere. The cells are lysed using a mix of cationic surfactant, glacial acetic acid, and sodium chloride. Two ml of the lysed cell suspension from each well is added to 8 ml of diluent. The number of nuclei is determined using a Coulter counter (ZBI model), and a percent growth for each drug concentration is calculated. From this, an IDso (molar concentration of compound that results in 50% inhibition of growth) is determined.

[7] = system: Escherichia coli; assay: in vitro antibacterial (ABMF) microdilution susceptibility test; format: cell-based; conditions: Mueller-Hinton broth microdilution, 37°C, 16-24 hours, read-out: ABMF Minimal Inhibitory Concentration (µ/ml) E. coli
Source text: (§2) Still another test protocol is the in vitro antibacterial (ABMF) test which is a recognized standard microdilution susceptibility procedure in Mueller-Hinton broth against Gram-positive and Gram-negative bacterial test organisms. The procedure is a modification of a state-of-the-art procedure reported in Manual of Clinical Microbiology, Lennette, E. H., ed., by Barry, A. L. and C. Thornsberry at pages 463-474 and by Gavan, T. L. and A. L. Barry at pages 459―462, American Society for Microbiology, Washington, 1980.
(§3) In the test, a given bacterial culture is used to inoculate individual test wells of microdilution trays containing growth medium and test compound, the latter in a microdilution series: 1000, 333.111, 37,12, 4, 1.4, and 0.46 micrograms per milliliter. […] For convenience, values are reported for Escherichia coli, Corynebacterium Sp. ATCC 21698, Salmonella typhimurium, Streptococcus pneumoniae, and Rhodotorula aurantiaca.

[8] = system: Corynebacterium Sp. ATCC 21698; assay: as above; format: cell-based; conditions: ATCC21698, Mueller-Hinton broth microdilution, 37°C, 16-24 hours, read-out: ABMF Minimal Inhibitory Concentration (µ/ml) Coryn. sp.
Source text: as §2, §3

[9] = system: Streptococcus pneumoniae; assay: as above; format: cell-based; conditions: Mueller-Hinton broth microdilution, 37°C, 16-24 hours, read-out: ABMF Minimal Inhibitory Concentration (µ/ml) S. pneum.
Source text: as §2, §3

[10] = system: Salmonella typhimurium; assay: as above; format: cell-based; conditions: Salmonella enterica, Mueller-Hinton broth microdilution, 37°C, 16-24 hours, read-out: ABMF Minimal Inhibitory Concentration (µ/ml) S. typh.
Source text: as §2, §3

[11] = system: Rhodotorula aurantiaca; assay: as above; format: cell-based; conditions: Buckleyzyma aurantiaca; Mueller-Hinton broth microdilution, 37°C, 16-24 hours; read-out: ABMF Minimal Inhibitory Concentration (µ/ml) R. aurant
Source text: as §2, §3

IC50 [1] | IC50 [6] | SMILES | zone of inhibition at 500 µg/mL [3] | zone of inhibition at 500 µg/mL [4] | zone of inhibition at 3000 µg/mL [5] | response vs control in vivo at 12.5 mg/kg [2] | response vs control in vivo at 25 mg/kg [2] | MIC [7] | MIC [8] | MIC [9] | MIC [10] | MIC [11] | also measured
1900 nM | 1000 nM | CCN(CC)CCn1nc2c3c(c([N+](=O)[O-])ccc31)Oc1ccccc1-2 [Example 1, N,N-Diethyl-5-nitro-2H-[1] benzopyrano[4,3,2-cd]indazole-2-ethanamine] | 15 mm | 14 mm | 0 mm |  |  |  |  |  |  |  | response vs control in vivo at 100 mg/kg ([2]; Dose 100 mg/kg intraperitoneally once daily for five days): 138%; response vs control in vivo at 200 mg/kg ([2]; Dose 200 mg/kg intraperitoneally once daily for five days): 211%
400 nM | 500 nM | O=[N+]([O-])c1ccc2c3c(nn2CCNCCO)-c2ccccc2Oc13 [Example 2, 2-[[2-(5-Nitro-2H-[1]benzopyrano[4,3,2-cd]-indazol-2-yl)ethyl]amino]ethanol, monohydrochloride] | 17 mm |  |  |  |  |  |  |  |  |  | response vs control in vivo at 50 mg/kg ([2]; Dose 50 mg/kg intraperitoneally once daily for five days): 141%; zone of inhibition at 100 µg/mL ([4]; Conc. .1 mg/ml): 17 mm; zone of inhibition at 100 µg/mL ([5]; Conc. .1 mg/ml): 19 mm
1300 nM | 2400 nM | CCN(CC)CCn1nc2c3c(c(N)ccc31)Oc1ccccc1-2 [Example 3, 5-Amino-N,N-diethyl-2H-[1]benzopyrano[4,3,2-cd]indazol-2-ethanamine] |  |  |  |  |  |  |  |  |  |  | 
80 nM | 160 nM | CCN(CC)CCn1nc2c3c(c(NCCN)ccc31)Oc1ccccc1-2 [Example 4, N-[2-[2-(Diethylamino)ethyl]-2H-[1]benzopyrano[4,3,2-cd]indazol-5-yl]ethanediamine, trihydrobromide, dihydrate] |  | 14 mm | 0 mm | 174% | 216% |  |  |  |  |  | zone of inhibition at 3000 µg/mL ([3]; Conc. 3 mg/ml): 16 mm

SMILES | IC50 [1] | IC50 [6] | zone of inhibition at 500 µg/mL [3] | zone of inhibition at 500 µg/mL [4] | zone of inhibition at 3000 µg/mL [5] | response vs control in vivo at 12.5 mg/kg [2] | response vs control in vivo at 25 mg/kg [2] | MIC [7] | MIC [8] | MIC [9] | MIC [10] | MIC [11] | also measured
O=C(CNCCO)Nc1ccc2c3c(nn2CCNCCO)-c2cc(O)ccc2Oc13 [Example 17, 2-[2-[(2-Hydroxyethyl)amino]ethyl]-9-hydroxy-2H-[1]benzopyrano[4,3,2-cd]indazol-5-yl]-2-[(2-hydroxyethyl)amino]acetamide, hydrochloride] | 1700 nM |  |  |  |  |  |  | 1000 µg/mL | 333 µg/mL | > 1000 µg/mL | > 1000 µg/mL | 1000 µg/mL | response vs control in vivo at 60 mg/kg ([2]; Dose 60 mg/kg intraperitoneally once daily for five days): 134%; response vs control in vivo at 120 mg/kg ([2]; Dose 120 mg/kg intraperitoneally once daily for five days): 142%; response vs control in vivo at 240 mg/kg ([2]; Dose 240 mg/kg intraperitoneally once daily for five days): 184%
OCCNCCNc1ccc2c3c(nn2CCNCCO)-c2cc(O)ccc2Oc13 [Example 18, 2-[2[(2-Hydroxyethyl)amino]ethyl]-5-[[2-[(2-hydroxyethyl)amino]ethyl]amino-2H [1]benzopyrano[4,3,2-cd]indazol-9-ol, hydrochloride] | 130 nM |  |  |  |  | 236% | 236% | 111 µg/mL | 37 µg/mL | 333 µg/mL | 1000 µg/mL | > 1000 µg/mL | response vs control in vivo at 6.25 mg/kg ([2]; Dose 6.25 mg/kg intraperitoneally once daily for five days): 173%
